≈ marks a conversion by molar mass, not a printed value. Read-outs that look alike come from different tables or passages of the source.
Legend:
[1] = test system: Candida albicans ATCC 11651; assay: In vivo systemic Candida infection in mice, primary assay; set-up: species or system Candida albicans; CF-1 female mice; conditions: 150 mg/kg per day; for responders at 150 mg/kg: Candida albicans, read-out: % Survival
In short: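 CF-1 female mice (20 g, 10 per group) were infected IV with 0.2 ml of 1×10^7/ml C. albicans ATCC 11651, then given test compound subcutaneously at 50 or 150 mg/kg/day at 1 and 6 h post-infection and once daily for three more days. Survival was followed for 21 days against infected untreated mice; ≥70% protection at 14 days was scored active.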

Sclerotium rolfsii = assay: Example M southern blight; format: in vivo; conditions: Agroathelia rolfsii, 336 h; 5 kg/ha; read-out: disease control rating, Ex. M
Method: […] Seeds and soil were then inoculated with a mixture of sand, cereal and mycelium of the fungus Sclerotium rolfsii, causal agent of sourthern blight, and incubated in a growth chamber at 30° C. for 14 days. Disease ratings were then made.

[2] = test system: Aspergillus fumigatus ATCC 28214; assay: In vitro antifungal MIC, microtiter broth dilution; conditions: for MIC: Aspergillus fumigatus, ATCC28214, 24 h, read-out: MIC values, A. fumigatus, 30°, 24 hours
Method: In vitro activity (Table 5) is expressed in terms of the minimal inhibitory concentration (MIC) of the test compound which inhibits the growth of yeasts and fungi.
The target organisms, Candida albicans ATCC 11651 and Aspergillus fumigatus ATCC 28214 are standardized, [V. Bezjak, J. Clinical Micro., 21 509-512 (1984)], to a concentration of 10^7 organisms/ml and maintained at -70° until use. Test compounds are solubilized in dimethyl sulfoxide (DMSO) and diluted in Eagle's Minimum Essential Medium (EMEM) broth to achieve a final concentration of 200 μg/ml. Stock solutions of standard antifungal agents are stored at -70° and diluted in EMEM as required.
The in vitro assay utilizes a microtiter broth dilution technique [L. Polonelli and G. Morace, Mycopathologia, 86, 21-28 (1984)] and C. […] The appropriate wells are inoculated with the required organism (C. albicans at 1×10^4 organisms/ml and A. fumigatus at 5×10^5 organisms/ml) and the assay incubated at 30° for 24 hours.

[3] = test system: Candida albicans ATCC 11651; assay: In vitro antifungal MIC, microtiter broth dilution; conditions: for MIC: Candida albicans, ATCC11651, 24 h, read-out: MIC values, C. albicans, 30°, 24 hours
Phytophthora infestans = assay: whole plant or invertebrate; format: in vivo; conditions: for pest or weed control at 100 ppm: Phytophthora infestans, in Solanum lycopersicum, read-out: disease control rating, Ex. H, 100 PPM
Rhizoctonia solani [4] = assay: Example K cotton blight; format: in vivo; conditions: 336 h, 5 kg/ha, read-out: disease control rating, Ex. K
Method: […] Seeds and soil were then inoculated with a mixture of sand, cereal and mycelium of the fungus Rhizoctonia solani, causal agent of cotton blight, and incubated in a growth chamber at 30° C. for 14 days. Disease ratings were then made.

Pyricularia oryzae = assay: whole plant or invertebrate; format: in vivo; conditions: for pest or weed control at 100 ppm: Pyricularia oryzae, 120 h, read-out: disease control rating, Ex. E, 100 PPM
Botrytis cinerea = assay: Example C bean grey mold; format: in vivo; conditions: 100 PPM; for pest or weed control at 100 ppm: Botrytis cinerea, 24 h, read-out: disease control rating, Ex. C
In short: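 Broad bean seedlings; foliar spray to run-off. Cmpd 100 or 20 ppm in water + 250 ppm TREM 014, acetone 6% v/v final.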

Pythium aphanadermatum = assay: Example J cucumber damping off; format: in vivo; conditions: Pythium, 336 h; 5 kg/ha; read-out: disease control rating, Ex. J
In short: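 Seeds and soil were inoculated with a mix of sand, cereal and Pythium aphanadermatum mycelium, the fungus responsible for cucumber damping off. They were kept in a growth chamber at 30° C. for 14 days, and disease was then rated to assess control.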

Puccinia recondita = assay: Example G wheat leaf rust; format: in vivo; conditions: 100 PPM, read-out: disease control rating, Ex. G
Venturia inaequalis = assay: Example A apple scab; format: in vivo; conditions: 100 PPM, read-out: disease control rating, Ex. A
In short: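 Acetone solution (6% of final vol.) → suspension at 100 or 20 ppm in water + 250 ppm TREM 014 surfactant; sprayed to run-off on apple seedlings.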

Plasmorpara viticola = assay: Example I grape downy mildew; format: in vivo; conditions: read-out: disease control rating, Ex. I
In short: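 Compounds were dissolved in acetone (6% of final volume) and suspended at 100 or 20 ppm in purified water with 250 ppm TREM 014 surfactant (polyhydric alcohol esters). Grape seedlings were sprayed with this suspension to run-off.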

[5] = test system: Cercosporidium personatum; assay: Example B Peanut Late Leafspot; format: in vivo; conditions: Nothopassalora personata; 100 PPM; read-out: disease control rating, Ex. B
In short: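 Foliar spray on peanut seedlings, to run-off; test rates 100 or 20 ppm. Formulation: acetone at 6% of final volume, water with 250 ppm polyhydric alcohol ester surfactant.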

[6] = test system: Erysiphe graminis f. sp. tritici; assay: Example D wheat powdery mildew; format: in vivo; conditions: Blumeria graminis, 144 h; 100 PPM; read-out: disease control rating, Ex. D
In short: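 Spray to run-off on wheat seedlings; test suspension 100 or 20 ppm compound, acetone 6% v/v, 250 ppm polyhydric alcohol ester surfactant in water.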

[7] = test system: Fusarium oxysporum f. sp. cucumerinum; assay: Example L cucumber wilt; format: in vivo; conditions: 336 h, 5 kg/ha, read-out: disease control rating, Ex. L
Method: […] Seeds and soil were then inoculated with a mixture of sand, cereal and mycelium of the fungus Fusarium oxysporum f. sp. cucumerinum, causal agent of cucumber wilt, and incubated in a growth chamber at 30° C. for 14 days. Disease ratings were then made.

Rhizoctonia solani [8] = assay: Example F rice sheath blight; format: in vivo; conditions: 100 PPM; for pest or weed control at 100 ppm: Rhizoctonia solani, 144 h, read-out: disease control rating, Ex. F
In short: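 Spray to run-off on rice seedlings; test suspension 100 or 20 ppm compound in water + 250 ppm TREM 014 surfactant, acetone 6% final volume.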

| SMILES | responders at 150 mg/kg ([1]; ATCC11651, 168 h, day 7) [%] | pest or weed control at 5000 g/ha (Sclerotium rolfsii) [%] | pest or weed control at 5000 g/ha (Rhizoctonia solani [4]) [%] | pest or weed control at 5000 g/ha (Pythium aphanadermatum) [%] | pest or weed control at 100 ppm (Puccinia recondita) [%] | pest or weed control at 100 ppm (Venturia inaequalis) [%] | pest or weed control at 100 ppm (Plasmorpara viticola) [%] | pest or weed control at 100 ppm [5] [%] | pest or weed control at 100 ppm [6] [%] | pest or weed control at 5000 g/ha [7] [%] | responders at 150 mg/kg ([1]; ATCC11651, 336 h, day 14) [%] | responders at 150 mg/kg ([1]; ATCC11651, 504 h, day 21) [%] | MIC [2] [µg/mL] | MIC [3] [µg/mL] | pest or weed control at 100 ppm (Phytophthora infestans) [%] | pest or weed control at 100 ppm (Pyricularia oryzae) [%] | pest or weed control at 100 ppm (Botrytis cinerea) [%] | pest or weed control at 100 ppm (Rhizoctonia solani [8]) [%] | also measured |
| --- | --- | --- | --- | --- | --- | --- | --- | --- | --- | --- | --- | --- | --- | --- | --- | --- | --- | --- | --- |
| C=C(c1ccc(F)cc1)C(O)(Cn1cncn1)c1ccc(F)cc1 (single isomer, unassigned) [Example 1277] | 100 | 0 | 0 | 0 | 39 | 9 | 25 | 65 | 0 | 0 | – | – | – | – | – | – | – | – | % Survival ([1]; day 14): 100%; % Survival ([1]; day 21): 90%; MIC values, A. fumigatus ([2]; 30°, 24 hours): 6.3 µg/mL (≈ 19.2 µM); MIC values, C. albicans ([3]; 30°, 24 hours): 0.03 µg/mL (≈ 0.0916 µM); disease control rating, Ex. H (Phytophthora infestans; 100 PPM): 0%; disease control rating, Ex. E (Pyricularia oryzae; 100 PPM): 0%; disease control rating, Ex. C (Botrytis cinerea): 0%; disease control rating, Ex. F (Rhizoctonia solani [8]): 0% |
| C=C(c1ccccc1F)C(O)(Cn1cncn1)c1ccc(F)cc1 (centres unmarked) [Example 10] | 20 | 0 | 0 | 0 | 64 | 0 | 0 | 76 | 63 | 0 | 10 | 0 | 25 (≈ 76.4 µM) | 1.6 (≈ 4.89 µM) | 0 | 0 | 52 | 17 | – |
| C=C(c1ccccc1)C(O)(Cn1cncn1)c1cc(Cl)cc(Cl)c1 (centres unmarked) [Example 603] | 10 | 0 | 0 | 0 | 95 | 44 | 0 | 97 | 69 | 0 | 0 | 0 | > 100 | 0.1 (≈ 0.278 µM) | 0 | 0 | 91 | – | – |
| C=C(c1ccc(F)cc1)C(O)(Cn1ncnc1S)c1ccccc1F (centres unmarked) [Example 1300] | – | 0 | 0 | 0 | 100 | 100 | 0 | 100 | 92 | 0 | – | – | 6.3 (≈ 17.5 µM) | ≤ 0.4 | 0 | 58 | 93 | 81 | – |
| C=C(c1ccccc1)C(O)(Cn1ncnc1SCCCC)c1ccc(F)cc1 (centres unmarked) [Example 1459] | – | 0 | 0 | 0 | 65 | 72 | 74 | 70 | 31 | 0 | – | – | > 100 | > 100 | 0 | 17 | 65 | 0 | – |
